Experimental data published in the NIST ThermoML archive (doi:10.1021/je7004374).

Tests used:
[1] = refractive index (Na D-line) (dimensionless); conditions: 298.15 K; 101.33 kPa; Liquid; Standard Abbe refractometry
[2] = Liquid

CC(O)CO (centres undefined) [1,2-propanediol]
Conditions	refractive index
[1]	1.431

[2]
Conditions	mass density [kg/m3]
283.16 K, 101.33 kPa	1043.43
288.15 K, 101.33 kPa	1039.84
293.15 K, 100 kPa	1036.22
293.15 K, 10000 kPa	1040.95
293.15 K, 20000 kPa	1045.52
293.15 K, 30000 kPa	1049.89
293.15 K, 40000 kPa	1054.08
293.15 K, 50000 kPa	1058.13
293.15 K, 60000 kPa	1062.03
293.15 K, 70000 kPa	1065.8
293.15 K, 80000 kPa	1069.46
293.15 K, 90000 kPa	1073.01
293.15 K, 100000 kPa	1076.45
293.16 K, 101.33 kPa	1036.21
298.15 K, 100 kPa	1032.55
298.15 K, 10000 kPa	1037.38
298.15 K, 20000 kPa	1042.03
298.15 K, 30000 kPa	1046.08
298.15 K, 40000 kPa	1050.75
298.15 K, 50000 kPa	1054.86
298.15 K, 60000 kPa	1058.82
298.15 K, 70000 kPa	1062.66
298.15 K, 80000 kPa	1066.37
298.15 K, 90000 kPa	1069.96
298.15 K, 100000 kPa	1073.46
298.16 K, 101.33 kPa	1032.54
303.15 K, 100 kPa	1028.84
303.15 K, 10000 kPa	1033.77
303.15 K, 20000 kPa	1038.51
303.15 K, 30000 kPa	1043.04
303.15 K, 40000 kPa	1047.38
303.15 K, 50000 kPa	1051.56
303.15 K, 60000 kPa	1055.59
303.15 K, 70000 kPa	1059.48
303.15 K, 80000 kPa	1063.24
303.15 K, 90000 kPa	1066.89
303.15 K, 100000 kPa	1070.44
303.16 K, 101.33 kPa	1028.83
308.15 K, 100 kPa	1025.1
308.15 K, 101.33 kPa	1025.09
308.15 K, 10000 kPa	1030.12
308.15 K, 20000 kPa	1034.95
308.15 K, 30000 kPa	1039.56
308.15 K, 40000 kPa	1043.98
308.15 K, 50000 kPa	1048.23
308.15 K, 60000 kPa	1052.32
308.15 K, 70000 kPa	1056.27
308.15 K, 80000 kPa	1060.1
308.15 K, 90000 kPa	1063.8
308.15 K, 100000 kPa	1067.39
313.15 K, 100 kPa	1021.31
313.15 K, 101.33 kPa	1021.3
313.15 K, 10000 kPa	1026.44
313.15 K, 20000 kPa	1031.36
313.15 K, 30000 kPa	1036.06
313.15 K, 40000 kPa	1040.55
313.15 K, 50000 kPa	1044.87
313.15 K, 60000 kPa	1049.03
313.15 K, 70000 kPa	1053.04
313.15 K, 80000 kPa	1056.92
313.15 K, 90000 kPa	1060.68
313.15 K, 100000 kPa	1064.32
318.15 K, 100 kPa	1017.48
318.16 K, 101.33 kPa	1017.48
323.15 K, 101.33 kPa	1013.61
328.16 K, 101.33 kPa	1009.71
333.15 K, 101.33 kPa	1005.76
338.16 K, 101.33 kPa	1001.77
343.15 K, 101.33 kPa	997.745
348.15 K, 101.33 kPa	993.675
353.15 K, 101.33 kPa	989.56
358.15 K, 101.33 kPa	985.405
363.15 K, 101.33 kPa	981.219

[2]
Conditions	speed of sound [m/s]
292.87 K, 45590 kPa, Sing-around technique in a fixed-path interferometer	1674.4
292.87 K, 60790 kPa, Sing-around technique in a fixed-path interferometer	1717.8
292.87 K, 101320 kPa, Sing-around technique in a fixed-path interferometer	1821.9
292.88 K, 15200 kPa, Sing-around technique in a fixed-path interferometer	1578.7
292.88 K, 30390 kPa, Sing-around technique in a fixed-path interferometer	1628.5
292.88 K, 75990 kPa, Sing-around technique in a fixed-path interferometer	1758.5
292.88 K, 91180 kPa, Sing-around technique in a fixed-path interferometer	1797.3
292.92 K, 100 kPa, Sing-around technique in a fixed-path interferometer	1523.1
293.15 K, 101.33 kPa, Pulse-echo method	1522.4
298.15 K, 101.33 kPa, Pulse-echo method	1508.4
298.15 K, 45590 kPa, Sing-around technique in a fixed-path interferometer	1661.6
298.15 K, 60790 kPa, Sing-around technique in a fixed-path interferometer	1705.2
298.15 K, 75990 kPa, Sing-around technique in a fixed-path interferometer	1746.5
298.16 K, 15200 kPa, Sing-around technique in a fixed-path interferometer	1564.2
298.16 K, 30390 kPa, Sing-around technique in a fixed-path interferometer	1615.1
298.16 K, 91180 kPa, Sing-around technique in a fixed-path interferometer	1785.6
298.16 K, 101320 kPa, Sing-around technique in a fixed-path interferometer	1810.5
298.2 K, 100 kPa, Sing-around technique in a fixed-path interferometer	1508.3
303.13 K, 60790 kPa, Sing-around technique in a fixed-path interferometer	1693.5
303.13 K, 101320 kPa, Sing-around technique in a fixed-path interferometer	1799.9
303.14 K, 15200 kPa, Sing-around technique in a fixed-path interferometer	1551
303.14 K, 30390 kPa, Sing-around technique in a fixed-path interferometer	1602.4
303.14 K, 45590 kPa, Sing-around technique in a fixed-path interferometer	1649.6
303.14 K, 75990 kPa, Sing-around technique in a fixed-path interferometer	1735.4
303.14 K, 91180 kPa, Sing-around technique in a fixed-path interferometer	1774.8
303.15 K, 101.33 kPa, Pulse-echo method	1494.3
303.18 K, 100 kPa, Sing-around technique in a fixed-path interferometer	1494.2
308.12 K, 60790 kPa, Sing-around technique in a fixed-path interferometer	1682
308.12 K, 75990 kPa, Sing-around technique in a fixed-path interferometer	1724.1
308.12 K, 91180 kPa, Sing-around technique in a fixed-path interferometer	1764
308.12 K, 101320 kPa, Sing-around technique in a fixed-path interferometer	1789.3
308.13 K, 15200 kPa, Sing-around technique in a fixed-path interferometer	1537.7
308.13 K, 30390 kPa, Sing-around technique in a fixed-path interferometer	1589.5
308.13 K, 45590 kPa, Sing-around technique in a fixed-path interferometer	1637.6
308.15 K, 101.33 kPa, Pulse-echo method	1480.2
308.17 K, 100 kPa, Sing-around technique in a fixed-path interferometer	1480.1
313.15 K, 101.33 kPa, Pulse-echo method	1466
313.31 K, 15200 kPa, Sing-around technique in a fixed-path interferometer	1524.2
313.31 K, 30390 kPa, Sing-around technique in a fixed-path interferometer	1576.4
313.31 K, 45590 kPa, Sing-around technique in a fixed-path interferometer	1625
313.31 K, 60790 kPa, Sing-around technique in a fixed-path interferometer	1669.9
313.31 K, 75990 kPa, Sing-around technique in a fixed-path interferometer	1712.6
313.31 K, 91180 kPa, Sing-around technique in a fixed-path interferometer	1752.8
313.31 K, 101320 kPa, Sing-around technique in a fixed-path interferometer	1778.5
313.35 K, 100 kPa, Sing-around technique in a fixed-path interferometer	1465.4
